Experiments:
[1] = system: HCC1395 cells; assay: CellTiter-Glo viability and CalcuSyn synergy, PRMT5 inhibitor + olaparib, 6 days; details: for Combination Fa: 8640 min
[2] = system: A549 cells; assay: CellTiter-Glo viability and CalcuSyn synergy, PRMT5 inhibitor + trametinib, 6 days; details: for Combination Fa: 8640 min
[3] = system: MIAPACA2T2 cells; assay: CellTiter-Glo viability and CalcuSyn synergy, PRMT5 inhibitor + sotorasib, 6 days; details: for Combination Fa: 8640 min
[4] = system: MIAPACA2 cells; assay: CellTiter-Glo cell viability, PRMT5 inhibitor + sotorasib, 6 days; type: cell-based; details: Compound B + sotorasib
Experimental: Cell viability was measured by the CellTiter-Glo Luminescence assay after 6 days. […] To assess cell growth after combination treatment, nuclear counts were performed on the IncuCyte live cell imager over 8 days.

[5] = system: PSN1 cells; assay: CellTiter-Glo viability and CalcuSyn synergy, PRMT5 inhibitor + KIF18A, 6 days; details: for Combination Fa: 8640 min
[6] = system: SUM149PT cells; assay: CellTiter-Glo viability and CalcuSyn synergy, PRMT5 inhibitor + olaparib, 6 days; type: cell-based; details: for Combination Fa: 8640 min
Experimental: Raw luminescent values were converted to fraction affected (Fa) with the following equation: […]
Synergy analysis was performed using the CalcuSyn software to determine CI scores based on the drug concentrations used and corresponding Fa values. Results are shown in Tables 1-3 below. *CI Values (Calcusyn): Strong Synergism: 0.1-0.3; Synergism: 0.3-0.7; Moderate Synergism: 0.7-0.85; Slight Synergism: 0.85-0.9; Nearly Additive: 0.9-1.1.

[7] = system: LU99 NSCLC xenografts; assay: Tumor growth inhibition, LU99 NSCLC xenografts (Example 12); type: in vivo, Female NOD/SCID mice; details: Compound B 100 mg/kg orally once daily + sotorasib 100 mg/kg; versus either single agent alone
From the text: 10 Female NOD/SCID mice were implanted with LU99 NSCLC tumor xenografts. Mean tumor volumes for each grouping were between 100-200 mm^3. […] Plotted data represents the TGI (tumor growth inhibition), n=10 for each group.

[8] = Compound B 1.4579 μM + olaparib 0.103573 μM
[9] = Compound B 1.4579 μM + olaparib 0.176074 μM
[10] = Compound B 1.4579 μM + olaparib 0.299326 μM
[11] = Compound B 1.4579 μM + olaparib 0.508854 μM
[12] = Compound B 1.4579 μM + olaparib 0.865052 μM
[13] = Compound B 1.4579 μM + olaparib 1.47059 μM
[14] = Compound B 1.4579 μM + olaparib 2.5 μM
[15] = Compound B 0.0425 μM + trametinib 0.000213 μM
[16] = Compound B 0.0425 μM + trametinib 0.000404 μM
[17] = Compound B 0.0425 μM + trametinib 0.000767 μM
[18] = Compound B 0.0425 μM + trametinib 0.001458 μM
[19] = Compound B 0.0425 μM + trametinib 0.00277 μM
[20] = Compound B 0.0425 μM + trametinib 0.005263 μM
[21] = Compound B 0.0425 μM + trametinib 0.01 μM
[22] = Compound B 0.4374 μM + sotorasib 0.00596 μM
[23] = Compound B 0.4374 μM + sotorasib 0.009537 μM
[24] = Compound B 0.4374 μM + sotorasib 0.015259 μM
[25] = Compound B 0.4374 μM + sotorasib 0.024414 μM
[26] = Compound B 0.4374 μM + sotorasib 0.039063 μM
[27] = Compound B 0.4374 μM + sotorasib 0.0625 μM
[28] = Compound B 0.4374 μM + sotorasib 0.1 μM
[29] = Compound B 0.0384 μM + KIF18A 0.003951 μM
[30] = Compound B 0.0384 μM + KIF18A 0.005926 μM
[31] = Compound B 0.0384 μM + KIF18A 0.008889 μM
[32] = Compound B 0.0384 μM + KIF18A 0.013333 μM
[33] = Compound B 0.0384 μM + KIF18A 0.02 μM
[34] = Compound B 0.0384 μM + KIF18A 0.03 μM
[35] = Compound B 0.0384 μM + KIF18A 0.045 μM
[36] = Compound B 0.277008 μM + olaparib 0.103573 μM
[37] = Compound B 0.277008 μM + olaparib 0.176074 μM
[38] = Compound B 0.277008 μM + olaparib 0.299326 μM
[39] = Compound B 0.277008 μM + olaparib 0.508854 μM
[40] = Compound B 0.277008 μM + olaparib 0.865052 μM
[41] = Compound B 0.277008 μM + olaparib 1.47059 μM
[42] = Compound B 0.277008 μM + olaparib 2.5 μM

Cc1cc2cc(C(=O)N(Cc3ccc(C(F)(F)F)cn3)[C@@H](C)c3ncccn3)ccc2nc1N [Compound B]
Computed CI value [1, 8]: 0.217
Combination Fa [1, 8]: 0.5945
Computed CI value [1, 9]: 0.278
Combination Fa [1, 9]: 0.6178
Computed CI value [1, 10]: 0.338
Combination Fa [1, 10]: 0.6595
Computed CI value [1, 11]: 0.509
Combination Fa [1, 11]: 0.6756
Computed CI value [1, 12]: 0.679
Combination Fa [1, 12]: 0.711
Computed CI value [1, 13]: 0.706
Combination Fa [1, 13]: 0.7778
Computed CI value [1, 14]: 0.59
Combination Fa [1, 14]: 0.8539
Computed CI value [2, 15]: 0.569
Combination Fa [2, 15]: 0.4457
Computed CI value [2, 16]: 0.514
Combination Fa [2, 16]: 0.5278
Computed CI value [2, 17]: 0.5
Combination Fa [2, 17]: 0.6046
Computed CI value [2, 18]: 0.506
Combination Fa [2, 18]: 0.6769
Computed CI value [2, 19]: 0.452
Combination Fa [2, 19]: 0.7607
Computed CI value [2, 20]: 0.357
Combination Fa [2, 20]: 0.8409
Computed CI value [2, 21]: 0.589
Combination Fa [2, 21]: 0.8482
Computed CI value [3, 22]: 0.533
Combination Fa [3, 22]: 0.678
Computed CI value [3, 23]: 0.425
Combination Fa [3, 23]: 0.749
Computed CI value [3, 24]: 0.443
Combination Fa [3, 24]: 0.781
Computed CI value [3, 25]: 0.535
Combination Fa [3, 25]: 0.798
Computed CI value [3, 26]: 0.543
Combination Fa [3, 26]: 0.838
Computed CI value [3, 27]: 0.471
Combination Fa [3, 27]: 0.887
Computed CI value [3, 28]: 0.83
Combination Fa [3, 28]: 0.875
cell viability [4]: reduced MIAPACA2 cell viability
Computed CI value [5, 29]: 0.627
Combination Fa [5, 29]: 0.778
Computed CI value [5, 30]: 0.75
Combination Fa [5, 30]: 0.751
Computed CI value [5, 31]: 0.594
Combination Fa [5, 31]: 0.819
Computed CI value [5, 32]: 0.645
Combination Fa [5, 32]: 0.825
Computed CI value [5, 33]: 0.674
Combination Fa [5, 33]: 0.844
Computed CI value [5, 34]: 0.778
Combination Fa [5, 34]: 0.852
Computed CI value [5, 35]: 0.813
Combination Fa [5, 35]: 0.88
Computed CI value [6, 36]: 0.618
Combination Fa [6, 36]: 0.747
Computed CI value [6, 37]: 0.579
Combination Fa [6, 37]: 0.769
Computed CI value [6, 38]: 0.777
Combination Fa [6, 38]: 0.745
Computed CI value [6, 39]: 0.582
Combination Fa [6, 39]: 0.813
Computed CI value [6, 40]: 0.565
Combination Fa [6, 40]: 0.849
Computed CI value [6, 41]: 0.543
Combination Fa [6, 41]: 0.888
Computed CI value [6, 42]: 0.504
Combination Fa [6, 42]: 0.925
anti-tumor activity [7]: significant anti-tumor activity versus either single agent alone

— patent US20260373156A1, “CANCER TREATMENTS USING MTA-COOPERATIVE PRMT5 INHIBITORS” (AMGEN INC., priority 2022, published 2026)
